Measurements reported in patent US6677333B1, “2H-phthalazin-1-one derivatives and drug containing its derivatives as active ingredient” (Ono Pharmaceutical Co., Ltd., priority 1999, dated 2004).
Counter-ions that a name gives are not always drawn.

Molecular target: T1, PARP (Homo sapiens, UniProt P09874)
T1 construct: purchased TREVIGEN
Assay: Enzyme assay in vitro (PARP inhibitory activity)
Type: biochemical
Settings: PARP (TREVIGEN), activated DNA, 10 minutes reaction, 100% of control = distilled water; example 5 tested as trifluoro acetate
Procedure: The below procedure was carried out with 96 well plate. The reaction mixture contained 50 mM Tris/HCl (pH 8.0, WAKO), 10 mM MgCl2, 5 mM dithiothreitol (sigma), and 0.5 mg/mL activated DNA in 80 μL. The 10 μL of test compound was added to the reaction mixture and the reaction was started by addition of 10 μL of […] PARP (TREVIGEN). The reaction was terminated at 10 minutes by addition of 100 μL of 20% trichloroacetic acid. The reaction product was collected on a glass fiber filter (GF/C, PACKARD). The radioactivity was measured by topcount (PACKARD). Inhibitory activity of the compound was represented by 50% inhibitory concentration (IC50) calculated 100% of control (distilled water).

T1 sequence (P09874 whole entry): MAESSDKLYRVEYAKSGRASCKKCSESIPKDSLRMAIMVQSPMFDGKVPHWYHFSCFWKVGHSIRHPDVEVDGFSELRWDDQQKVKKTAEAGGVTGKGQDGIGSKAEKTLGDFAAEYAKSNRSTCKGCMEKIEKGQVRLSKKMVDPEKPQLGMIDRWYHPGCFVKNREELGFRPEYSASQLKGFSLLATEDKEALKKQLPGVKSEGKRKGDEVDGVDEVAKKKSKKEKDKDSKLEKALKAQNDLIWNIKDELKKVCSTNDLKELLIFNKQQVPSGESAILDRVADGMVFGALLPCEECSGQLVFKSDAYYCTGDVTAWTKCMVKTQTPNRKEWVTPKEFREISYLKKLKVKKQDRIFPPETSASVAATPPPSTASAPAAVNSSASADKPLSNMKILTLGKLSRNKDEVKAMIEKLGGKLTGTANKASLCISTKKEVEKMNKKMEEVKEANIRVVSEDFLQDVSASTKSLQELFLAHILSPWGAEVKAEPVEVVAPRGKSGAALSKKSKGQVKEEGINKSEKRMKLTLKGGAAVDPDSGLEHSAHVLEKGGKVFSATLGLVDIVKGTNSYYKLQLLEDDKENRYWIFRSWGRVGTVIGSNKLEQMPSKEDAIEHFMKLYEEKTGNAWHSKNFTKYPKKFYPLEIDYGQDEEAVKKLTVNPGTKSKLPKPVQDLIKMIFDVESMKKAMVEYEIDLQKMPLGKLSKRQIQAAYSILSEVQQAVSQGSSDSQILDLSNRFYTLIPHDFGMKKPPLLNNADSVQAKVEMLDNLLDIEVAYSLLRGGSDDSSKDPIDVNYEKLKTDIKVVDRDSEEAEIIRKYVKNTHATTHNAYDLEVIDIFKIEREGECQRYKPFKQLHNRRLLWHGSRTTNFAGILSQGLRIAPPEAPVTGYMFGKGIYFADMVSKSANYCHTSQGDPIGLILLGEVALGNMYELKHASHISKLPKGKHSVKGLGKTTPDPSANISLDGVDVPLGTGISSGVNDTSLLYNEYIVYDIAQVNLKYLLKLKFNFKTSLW

Compound	IC50 [nM]
NCCSCC(=O)Nc1cccc(-c2n[nH]c(=O)c3ccccc23)c1 [5(10), 4-(3-(2-(2-Aminoethylthio)acetylamino)phenyl)-2H-phthalazin-1-one Hydrochloride]	50
NCCCCC(=O)Nc1cccc(-c2n[nH]c(=O)c3ccccc23)c1 [compound 5]	42
